Reference: patent publication US12036222B2, “Methods of treating cancers overexpressing CARM1 with EZH2 inhibitors and a PARP inhibitor” (The Wistar Institut of Anatomy and Biology, priority 2018, dated 2024)
Entries after “also recorded” stand apart in the source; their conditions may differ.

Assays:
CARM1-expressing tumors = experiment: Immunohistochemistry and qRT-PCR of dissected CARM1-expressing tumors; assay type: in vivo, mice
Description: FIG. 79 illustrates immunohistochemical analysis for serial sections of tumors dissected from the indicated treatment groups where the tumor sections were stained for H3K27Me3, EZH2, cleaved caspase 3, and Ki67. Scale bar=50 μm.
FIG. 80 illustrates histological scoring (H-score) of the indicated proteins that was calculated for 3 separate fields from 5 tumors from 5 individual mice from each of the indicated groups.
FIG. 81 illustrates the expression of the indicated EZH2/BAF155 target genes that was determined by qRT-PCR in the tumors dissected from the indicated treatment groups.
(§1) The observed tumor growth suppression in vivo was correlated with the molecular pathways underlying the CARM1-dependent effects of EZH2 inhibition. To do so, immunohistochemical (IHC) analysis was performed for markers of cell proliferation (Ki67), apoptosis (cleaved caspase 3), H3K27Me3 and EZH2. […] Finally, the observed decrease in cell proliferation and increase in apoptosis correlated with the upregulation of the identified CARM1-regulated EZH2/BAF155 target genes such as DAB2, DLC1 and NOXA by the EZH2 inhibitor GSK126 in vivo (FIG. 81).

CARM1-depleted cells = experiment: Sensitization to Olaparib in CARM1-depleted cells; assay type: cell-based; conditions: data not shown
From the text: Therefore, CARM1-expressing EOC can be treated and ultimately eradicated by combinatory targeting EZH2 and PARP using clinically applicable small molecule inhibitors.

[1] = tested on: A1847 parental and CARM1 knockout cells; experiment: Epigenetic targeting small molecule set screen (14-day colony formation); assay type: cell-based, human; conditions: 14 days, normalized to vehicle
Description: FIG. 26 illustrates that CARM1-expressing cells are selectively sensitized to EZH2 inhibitors. Equal number of parental control or CARM1 knockout […] cells were plated and treated with each of the 23 individual epigenetic inhibitors for 14 days. The media with the inhibitors was refreshed every 3 days. Cell growth was quantified as integrated density using NIH Image J software. Quantification of the average integrated density graphed as a scatter plot. The X-axis indicates the relative growth of treated CARM1 high parental […] cells compared with DMSO vehicle controls. Y-axis indicates the relative growth of treated CARM1 knockout […] cells compared with DMSO vehicle controls. n=4; and error bars represents SEM. FIG. 27 illustrates a table of EZH2 inhibitors that are selective against CARM1 expression. CARM1-high parental controls and CARM1 knockout […] cells were treated with the indicated concentration of the small molecules in a 14-day colony formation assay. Integrated density for each well was calculated using NIH Image J software. The relative growth of the indicated cells was determined by normalizing to the vehicle control treated cells. n=4 and p-value was calculated using a two-tailed t-test. […] parental and CARM1 knockout cells were plated in 24-well plates and treated with 24 epigenetic compounds. Cell medium was changed every three days with appropriate drug doses for 14 days or until control wells became confluent. Colonies were washed twice with PBS and fixed with 10% methanol and 10% acetic acid in distilled water. Fixed colonies were stained with 0.005% crystal violet. Integrated density was measured using NIH ImageJ software as a surrogate for cell growth.

TIMP3 promoter = experiment: ChIP-qPCR at TIMP3 promoter; assay type: cell-based, human; conditions: A1847 cells, 10 μM GSK126
Description: FIGS. 62 to 65 illustrate the results of a ChIP analysis in parental control and CARM1 knockout A1847 cells treated with 10 μM GSK126 or vehicle controls. The cells were subjected to ChIP analysis using anti-EZH2 (FIG. 62), anti-H3K27Me3 (FIG. 63), anti-BAF155 (FIG. 64), or anti-RNA Pol II (FIG. 65) antibodies. An isotype-matched IgG was used as a negative control. ChIP products were subjected to qPCR analysis using primers specific for the promoter regions of the human TIMP3 genes. Mean of three independent experiments with SEM.* p<0.001 compared with controls.
ChIP was performed as described in Tu et al. Developmental Cell(2011) 21:1077-91. The following antibodies were used to perform ChIP: anti-H3K27Me3 (Cell Signaling, Cat. No: 9733), anti-BAF155 (Santa Cruz, Cat. No: sc-9746), anti-RNA polymerase II (Santa Cruz, Cat. No: sc-899) or anti-EZH2 (Cell Signaling, Cat. No: 5246). An isotype matched IgG was used as a negative control. ChIP DNA was analyzed by quantitative PCR against the promoter of the indicated genes using the following primers: DAB2 Forward: 5′-[…]-3′ (SEQ ID NO: 10) and DAB2 Reverse: 5′-[…]-3′ (SEQ ID NO: 11); DLC1 Forward: 5′-[…]-3′ (SEQ ID NO: 12) and DLC1 Reverse: 5′-[…]-3′ (SEQ ID NO: 13); NOXA Forward: 5′-[…]-3′ (SEQ ID NO: 14) and NOXA Reverse: 5′-[…]-3′ (SEQ ID NO: 15); TIMP3 Forward: 5′-[…]-3′ (SEQ ID NO: 16) and TIMP3 Reverse: 5′-[…]-3′ (SEQ ID NO: 17).

[2] = tested on: tumors formed by CARM1 knockout cells; experiment: Immunohistochemistry and qRT-PCR of dissected CARM1 knockout tumors; assay type: in vivo, mice
Description: FIGS. 82 to 84 illustrate immunohistochemical analysis for serial sections of tumors dissected from mice injected with CARM1 knockout A1847 cells. Serial sections of tumors dissected from the indicated treatment groups described in FIGS. 73 to 75 were subjected to immunohistochemical staining for H3K27Me3, EZH2, cleaved caspase 3, and Ki67 (FIG. 82). Scale bar=50 μm. Histological score (H-score) of the indicated proteins was calculated for 3 separate fields from 5 tumors from 5 individual mice from each of the indicated groups (FIG. 83). Expression of the indicated EZH2/BAF155 target genes was determined by qRT-PCR in the tumors dissected from the indicated treatment groups (FIG. 84).
as §1

HOSE or FTE cells = experiment: Colony formation assay in normal HOSE and FTE cells; assay type: cell-based, human; conditions: 10 μM GSK126, colony formation
Description: FIG. 33 illustrates relative growth of the indicated HOSE, FTE, and EOC cancer cell lines with high or low CARM1 expression treated with 10 μM GSK126 or vehicle in a colony formation assay as determined by NIH Image J quantification.
500 to 5,000 cell were plated into a 24 well tissue culture plate and treated with the indicated compounds. Medium was changed every three days with appropriate drug doses for 12 days or until control wells became confluent. Colonies were washed twice with PBS and fixed with 10% methanol and 10% acetic acid in distilled water. Fixed colonies were stained with 0.005% crystal violet. Integrated density was measured using NIH ImageJ software.

[3] = clinical trials for hematopoietic malignancies; cited from earlier work

In the case of CC[C@H](C)n1cc(C)c2c(C(=O)NCc3c(C)cc(C)[nH]c3=O)cc(-c3ccc(N4CCNCC4)nc3)cc21 [GSK126, (S)-1-(sec-butyl)-N-((4,6-dimethyl-2-oxo-1,2-dihydropyridin-3-yl)methyl)-3-methyl-6-(6-(piperazin-1-yl)pyridin-3-yl)-1H-indole-4-carboxamide], the EZH2 staining (CARM1-expressing tumors; IHC) is reported as “did not affect EZH2 staining”, the H3K27Me3 staining (CARM1-expressing tumors; IHC) is reported as “decreased” and the “expression of Ki67” value (CARM1-expressing tumors; IHC) is reported as “decreased the expression of Ki67”. The “expression of cleaved caspase 3” value (CARM1-expressing tumors; IHC) was “increased the expression of cleaved caspase 3”, the “expression of EZH2/BAF155 target genes DAB2, DLC1 and NOXA in vivo” value (CARM1-expressing tumors; qRT-PCR) was “upregulation” and the “sensitization to Olaparib” value (CARM1-depleted cells) was “did not promote sensitization to Olaparib”. The “selective growth suppression of CARM1-expressing vs CARM1 KO cells” value [1] was “showed selectivity against CARM1-expressing cells; also recorded: selectively sensitive”, the “association of BAF155 and Pol II with the TIMP3 promoter” value (TIMP3 promoter) was “CARM1 KO but not EZH2 inhibitor GSK126 treatment decreased the association” and the H3K27Me3 ([2]; IHC) was “reduction of H3K27Me3”. For the same molecule, the “expression of Ki67” value ([2]; IHC) was “did not affect the expression”, the “expression of cleaved caspase 3” value ([2]; IHC) was “did not affect the expression” and the “expression of CARM1 regulated EZH2/BAF155 target genes” value ([2]; qRT-PCR) was “did not increase the expression”. For the same molecule, the “growth of HOSE or FTE cells” value (HOSE or FTE cells) was “did not affect the growth; also recorded: didn't affect the growth” and the “safety in clinical trials” value [3] was “used safely; also recorded: proven safe; also recorded: well-tolerated with limited toxicity”.
